Measured values published in patent publication US20140100165A1, “PREVENTION OF KIDNEY INJURY OR DISEASE” (University of Florida Research Foundation, priority 2012, published 2014).
Where two headings read alike, the source gives them in different places.

What was measured:
[1] = Example 3: evaluation of rate of infusion of AP214 (adverse events, tolerability); type: in vivo, human
Experimental: To establish a suitable rate of infusion of AP214 a set of patient trials were performed.
AP214 isotonic solution single ascending doses (25, 50 and 100 μg/kg) for intravenous infusion administered over 10 minutes, or placebo (saline infusion).
AP214 isotonic solution single doses (100 μg/kg over 1 minute; 100 μg/kg over 30 seconds; 200 μg/kg over 30 seconds) for intravenous infusion.

[2] = system: Acute Kidney Injury (AKI) in patients undergoing cardiac surgery on cardiopulmonary bypass; type: in vivo; details: for kidney function as measured by estimated GFR: seven day post-operative period
From the text: The CS007 trial was designed to study both short and long term efficacy signals (FIG. 5).
Primary Aims • Safety: Safety and tolerability vs. placebo • Efficacy: Max post-operative change in absolute values of SCr compared to baseline within the first 7 days after surgery or until discharge from hospital, whichever comes first vs. placebo.
Secondary aims • Composite: • Assess the proportion of patients reaching the composite endpoint of death, need for RRT or a 25% reduction in renal function over a 90 day post-operative period vs. placebo. • AKIN: Assess post-operative incidence of AKI within 48 hours post-surgery • RIFLE: Assess post-operative incidence of AKI within first 7 days post-surgery. • SCr: Changes between surgery and postoperative day 7. • GFR: Changes at day 90 compared to baseline. • eGFR: Changes between surgery and postoperative day 7
Each dosage was provided over a period of 10 minutes. As used throughout this disclosure and unless specified otherwise, “μg/kg” refers to […] AP214 per kg bodyweight of the patient being treated.
Moreover, in the same double-blind study described in this Example, patients undergoing cardiac surgery on cardiopulmonary bypass (CPB) were randomized to placebo (PBO; n=26), AP214 given at either 600 μg/kg (n=25), or 800 μg/kg (n=26), divided into 3 bolus infusions at the predetermined intervals as described above. AKI was determined according to AKIN and RIFLE scores.

[3] = system: complete warm ischemia in the kidney; details: pigs; 200 μg/kg, 10 ml i.v. bolus during 1 minute, seven doses; cited from earlier work
[4] = system: Acute Kidney Injury (AKI) in patients undergoing cardiac surgery; experiment: Example 1: prevention of AKI by different dosage regimes of AP214 in patients undergoing cardiac surgery; type: in vivo, human
Experimental: Each of 12 patients undergoing cardiac surgery (the AP214 group) was dosed with 600 μg/kg AP214: 200 μg/kg at skin incision, 200 μg/kg at cross clamp release, and 200 μg/kg 6-hour after cross clamp release. Each dosage was provided over a period of 10 minutes. The placebo group included 13 patients undergoing cardiac surgery without AP214 infusion.
Objectives • trial objective was to assess the effect of AP214 on • 1) changes in serum creatinine, cystatin-C and carbamade, • 2) on eGFR and • 3) on the development of post-surgical acute kidney injury (AKI) • AKI also assessed (post-hoc analysis) by AKIN and RIFLE
Three different definitions of AKI were tested: • 1) 3 patients in the AP214 group developed AKI, in contrast to 7 patients in the placebo group who developed AKI. AKI is defined as in the CS005 protocol: • An absolute increase in serum creatinine of more than or equal to 26.4 μmol/l (0.3 mg/dl) or • A percentage increase in serum creatinine of more than or equal to 50% (1.5-fold from baseline) from Day 0-14 and/or • Urine output less than 0.5 mL/kg per hour for more than 6 hours. • 2) AKI according to the AKIN score as presented in FIG. 3a, and • 3) AKI according to the RIFLE score as presented in FIG. 3b.

[5] = 600 μg/kg bodyweight (3×200 μg/kg) i.v. over 10 minutes each, vs placebo
[6] = 600 μg/kg bodyweight, vs placebo

Structure (SMILES): CSCC[C@H](NC(=O)[C@H](CO)NC(=O)[C@H](Cc1ccc(O)cc1)NC(=O)[C@H](CO)NC(=O)[C@H](CCCCN)NC(=O)[C@H](CCCCN)NC(=O)[C@H](CCCCN)NC(=O)[C@H](CCCCN)NC(=O)[C@H](CCCCN)NC(=O)[C@H](CCCCN)NC(C)=O)C(=O)N[C@@H](CCC(=O)O)C(=O)N[C@@H](Cc1c[nH]cn1)C(=O)N[C@@H](Cc1ccccc1)C(=O)N[C@@H](CCCNC(=N)N)C(=O)N[C@@H](Cc1c[nH]c2ccccc12)C(=O)NCC(=O)N[C@@H](CCCCN)C(=O)N1CCC[C@H]1C(=O)N[C@H](C(N)=O)C(C)C [AP214, Acetyl-Lysyl-L-lysyl-L-lysyl-L-lysyl-L-lysyl-L-lysyl-L-seryl-L-tyrosyl-L-seryl-L-methionyl-Lglutamyl-L-histidyl-L-phenylalanyl-L-arginyl-L-tryptophanyl-glycyl-L-lysyl-L-prolyl-L-valine amide]
- adverse events ([1]; 100 μg/kg over 10 minutes i.v. (slower infusion rate)): did not show these adverse effects
- adverse events versus 100 μg/kg over 30 sec and 1 minute ([1]; 200 μg/kg over 30 seconds i.v.): more adverse events
- subjects with erythema ([1]; Group 2 (n=6), short infusion times): 6 subjects
- adverse events ([1]; Group 2 (n=6): 100 μg/kg over 1 minute, 100 μg/kg over 30 seconds, 200 μg/kg over 30 seconds, i.v.): A large number of adverse events were reported
- population distribution of extreme serum creatinine values (highest quartile) ([2]; 600 μg/kg): showed a reduction in serum creatinine values at the highest quartile
- kidney function as measured by estimated GFR ([2]; 600 μg/kg): increased kidney function
- population distribution of extreme serum creatinine values (highest quartile) ([2]; 800 μg/kg): showed a reduction in serum creatinine values at the highest quartile
- degree of acute kidney injury compared to placebo ([2]; 800 μg/kg, Day 0-7): displayed lesser degrees of acute kidney injury
- incidence of AKI compared with PBO, by surgery type ([2]; 800 μg/kg, combined CABG and valve surgery, multiple valve surgery, chronic kidney disease and CABG (or valve surgery)): numerically lower incidence of AKI
- kidney function as measured by estimated GFR ([2]; 800 μg/kg): increased kidney function
- renoprotective effect [3]: provides a renoprotective effect
- prevention of AKI as compared to placebo ([4]; 150 μg/kg bodyweight (3×50 μg/kg), same dosing scheme): showed no prevention of AKI
- patients who developed AKI (AKI as defined in the CS005 protocol) ([4]; 600 μg/kg (3×200 μg/kg), AP214 group of 12 patients, 7 of 13 in placebo group): 3 patients
- development of AKI according to the RIFLE and AKIN scores ([4]; 600 μg/kg bodyweight (3×200 μg/kg)): demonstrated prevention in the development of AKI
- decrease in eGFR [4, 5]: prevented a decrease in eGFR
- increase in serum creatinine [4, 5]: prevented
- increase in carbamide [4, 6]: prevented
- increase in cystatin C [4, 6]: prevented an increase in cystatin C
